Our source for the ΔTm and Activity values is ChEMBL document CHEMBL1152723, “Remarkable enhancement in the DNA-binding ability of C2-fluoro substituted pyrrolo[2,1-c][1,4]benzodiazepines and their anticancer potential” (2009).

Each structure is given as a SMILES string.

Experiment [1] deals with DNA. As to the kind of experiment: Binding affinity to calf thymus DNA assessed as change in melting temperature at a compound to DNA molar ratio of 1:5 at pH 7 by thermal denaturation assay. It is filed as nucleic-acid assay. As to conditions: Bos taurus.
The target in experiment [2] is T1, Type II restriction enzyme BamHI (Bacillus amyloliquefaciens) (UniProt P23940).
T1 sequence (whole entry): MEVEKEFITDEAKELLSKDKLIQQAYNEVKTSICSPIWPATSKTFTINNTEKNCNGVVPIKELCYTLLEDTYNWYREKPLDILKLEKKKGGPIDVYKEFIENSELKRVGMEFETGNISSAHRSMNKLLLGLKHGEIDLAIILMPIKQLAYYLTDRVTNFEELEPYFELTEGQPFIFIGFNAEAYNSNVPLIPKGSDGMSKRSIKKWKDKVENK
The experiment in a line: Inhibition of Bacillus amyloliquefaciens BamH1-mediated pBR322 cleavage after 16 hrs by RED100-restriction endonuclease digestion assay.

In the case of `COc1cc2c(cc1OCCCCN1CCN(CCCCOc3cc4c(cc3OC)C(=O)N3CC(F)(F)C[C@H]3C=N4)CC1)N=C[C@@H]1CC(F)(F)CN1C2=O`, the ΔTm – broadly, the change in melting temperature against a reference sample – in experiment [1] was found to be 14 °C.

Take `COc1cc2c(cc1OCCCCN1CCN(CCCCOc3cc4c(cc3OC)C(=O)N3CC(F)C[C@H]3C=N4)CC1)N=C[C@@H]1CC(F)CN1C2=O` (stereo not given in full): the ΔTm in experiment [1] was 38 °C. Same read-out and setting: the result for `COc1cc2c(cc1OCCCCCN1CCN(CCCCCOc3cc4c(cc3OC)C(=O)N3CC(F)(F)C[C@H]3C=N4)CC1)N=C[C@@H]1CC(F)(F)CN1C2=O` reads 13 °C.

For `COc1cc2c(cc1OCCCOc1cc3c(cc1OC)C(=O)N1CCC[C@H]1C=N3)N=C[C@@H]1CCCN1C2=O`, in experiment [1], the ΔTm came out at 10.2 °C. Same read-out and setting: the result for `COc1cc2c(cc1OCCCCCOc1cc3c(cc1OC)C(=O)N1CC(F)(F)C[C@H]1C=N3)N=C[C@@H]1CC(F)(F)CN1C2=O` reads 18.9 °C; that for `COc1cc2c(cc1OCCCCOc1cc3c(cc1OC)C(=O)N1CC(F)(F)C[C@H]1C=N3)N=C[C@@H]1CC(F)(F)CN1C2=O`, 4.2 °C; that for `C=C1C[C@H]2C=Nc3cc(OCCCOc4cc5c(cc4OC)C(=O)N4CC(=C)C[C@H]4C=N5)c(OC)cc3C(=O)N2C1`, 25.7 °C.

For `COc1cc2c(cc1OCCCCCN1CCN(CCCCCOc3cc4c(cc3OC)C(=O)N3CC(F)C[C@H]3C=N4)CC1)N=C[C@@H]1CC(F)CN1C2=O` (stereo not given in full), in experiment [1], the ΔTm was determined as 37 °C.

In the case of `COc1cc2c(cc1OCCCN1CCN(CCCOc3cc4c(cc3OC)C(=O)N3CC(=C(F)F)C[C@H]3C=N4)CC1)N=C[C@@H]1CC(=C(F)F)CN1C2=O`, the Activity result in experiment [2] is “Dose-dependent effect”. For the same molecule, in experiment [1], the ΔTm worked out at 28.9 °C.
